The target of experiment [1] is T1, human M3 muscarinic receptor (Homo sapiens, UniProt P20309).
T1 construct: expressed in transfected cells; host or cells: CHO-K1
Briefly: Inhibitory effect on methacholine-induced calcium influx, FLIPR assay, CHO-K1 cells stably expressing the human M3 muscarinic receptor. It is filed as cell-based. The following applies: inhibition of calcium influx induced by methacholine. The text has this:
Muscarinic receptor subtypes (M1, M3 and M5 receptors), which couple to Gq proteins, activate the phospholipase C (PLC) pathway upon agonist binding to the receptor. As a result, the activated PLC hydrolyzes phosphatidyl inositol diphosphate (PIP2) to diacyl glycerol (DAG) and […] (IP3), which in turn generates calcium release from intracellular stores, i.e., endoplasmic and sarcoplasmic reticula. By utilizing FLIPR (Molecular Devices, Inc.) assay in which a calcium sensitive dye (Component A) is used that fluoresces when free calcium binds, the increase in intracellular calcium is measured on the basis of the change in the fluorescence intensity.
Methacholine was added to CHO-K1 cells stably expressing the human M3 muscarinic receptor to induce calcium influx and evaluate the inhibitory effect of test compounds. In the experiment, a FLIPR Calcium assay kit (Molecular Devices, Inc.) was used.
CHO-K1 cells stably expressing the human M3 muscarinic receptor suspended in Ham's F-12 media (Invitrogen, Co.) containing 10% fetal bovine serum (FBS) were seeded into 96-well FLIPR plates at a volume of 100 μL/well. Next day, 60 μL/well of Non-wash-dye solution (Hank's buffered salt solution, HBSS, containing 20 mM HEPES and 6.5 mM probenecid) was added to the cells, which were then incubated for an hour at 37° C. in the presence of 5% carbon dioxide. 20 μL of 10 concentrations of test compound solutions (HBSS containing 1% DMSO, 20 mM HEPES, 2.5 mM probenecid and 0.05% bovine serum albumin, BSA) prepared at concentrations in a range of 0.01-1000 nM with 2-fold serial dilution) were added, followed by incubation for 180 seconds. Then, 20 μL of 30 nM methacholine solution (HBSS containing 20 mM HEPES, 2.5 mM probenecid and 0.05% bovine serum albumin, BSA) was added, and fluorescence intensity was traced by the intracellular calcium influx measuring device FLIPR 96 (Molecular Devices, Inc.) for 170 seconds. The difference between the lowest and the highest values of the fluorescence intensity (FI) over the period of the measurement was used as a measured value. The percentages of inhibition by the test compounds were calculated according to the following formula from the measured value of the methacholin-added and test compound non-added sample (FIpositive), the measured value of the methacholin non-added and test compound non-added sample (FInegative), and the measured value of the methacholin-added and test compound-added sample (FItest). (%) Percentage of inhibition by test compound=[(1−(FItest−FInegative)/(FIpositive−FInegative)]×100
The 50% inhibitory concentrations (IC50 values) of test compounds were analyzed by a four-parameter logistic model using XLfit4 (IDBS, Ltd.) for the percentage of the inhibition by different concentrations of test compounds.

For experiment [2], the target named is T2, human β2 adrenergic receptor (Homo sapiens, UniProt P07550).
T2 construct: expressed in transfected cells; host or cells: CHO-K1
T2 sequence (P07550 whole entry): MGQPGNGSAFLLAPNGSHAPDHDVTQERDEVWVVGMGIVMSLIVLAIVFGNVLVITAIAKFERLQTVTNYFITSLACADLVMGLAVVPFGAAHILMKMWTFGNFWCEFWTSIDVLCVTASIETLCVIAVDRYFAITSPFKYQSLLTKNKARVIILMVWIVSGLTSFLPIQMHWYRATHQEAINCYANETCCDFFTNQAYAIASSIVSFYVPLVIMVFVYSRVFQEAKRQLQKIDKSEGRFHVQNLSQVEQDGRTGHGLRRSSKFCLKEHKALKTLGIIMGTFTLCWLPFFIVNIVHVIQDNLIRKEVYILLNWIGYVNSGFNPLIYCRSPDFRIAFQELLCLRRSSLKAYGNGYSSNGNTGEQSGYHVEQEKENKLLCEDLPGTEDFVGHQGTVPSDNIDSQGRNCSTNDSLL
Briefly: Whole-cell cAMP Flashplate assay using CHO-K1 cells stably expressing human β2 adrenergic receptor. It is filed as cell-based. The settings on record: cAMP production. On the procedure: The β2 adrenergic receptor, which couples to Gs proteins, activates adenylate cyclase upon agonist binding to the receptor. As a result, cAMP is produced in cells. The activation ability of the β2 adrenergic receptor can be measured by measuring the amount of the cAMP with cAMP-Screen System (Applied Biosystems).
CHO-K1 cells expressing the human β2 adrenergic receptor suspended in Ham's F-12 media containing 10% FBS were seeded into 96-well plates at a volume of 100 μL/well. Next day, they were washed with 200 μL PBS(−), to which 80 μL of 0.5 mM IBMX solution (Ham's F-12 media containing 0.05% BSA) was then added, followed by incubation for 20 minutes at 37° C. in the presence of 5% carbon dioxide. 20 μL of 9 concentrations of test compound solutions (0.5 mM IBMX solution containing 1% DMSO) prepared at concentrations in a range of 0.01-1000 nM with 2-fold serial dilution) were added, followed by incubation for 20 minutes at 37° C. in the presence of 5% carbon dioxide. Then, 100 μL of Assay/Lysis Buffer (a reagent that comes with cAMP Screen System) was added. The cells were lysed by pipetting, further incubated for 30 minutes at 37° C., and then frozen at −80° C. After several days, samples, thawed at room temperature, were treated according to the protocol of cAMP Screen System, and then chemiluminescence was measured by EnVision (PerkinElmer, Inc.). The amount of cAMP was calculated from the standard curve for the standard attached to cAMP Screen System.
The concentrations of a test compound at which 50% of its maximal effect is reached (EC50 values) were analyzed by a four-parameter logistic model using XLfit4 (IDBS, Ltd.) for the amounts of cAMP production at different concentrations of the test compounds.

Where a name gives a salt, the structure may show the parent alone.

Usually IC50 stands for the midpoint of a concentration-inhibition curve. What is called EC50 is the concentration needed to bring the measured effect to its halfway point.

T1 sequence (P20309 whole entry): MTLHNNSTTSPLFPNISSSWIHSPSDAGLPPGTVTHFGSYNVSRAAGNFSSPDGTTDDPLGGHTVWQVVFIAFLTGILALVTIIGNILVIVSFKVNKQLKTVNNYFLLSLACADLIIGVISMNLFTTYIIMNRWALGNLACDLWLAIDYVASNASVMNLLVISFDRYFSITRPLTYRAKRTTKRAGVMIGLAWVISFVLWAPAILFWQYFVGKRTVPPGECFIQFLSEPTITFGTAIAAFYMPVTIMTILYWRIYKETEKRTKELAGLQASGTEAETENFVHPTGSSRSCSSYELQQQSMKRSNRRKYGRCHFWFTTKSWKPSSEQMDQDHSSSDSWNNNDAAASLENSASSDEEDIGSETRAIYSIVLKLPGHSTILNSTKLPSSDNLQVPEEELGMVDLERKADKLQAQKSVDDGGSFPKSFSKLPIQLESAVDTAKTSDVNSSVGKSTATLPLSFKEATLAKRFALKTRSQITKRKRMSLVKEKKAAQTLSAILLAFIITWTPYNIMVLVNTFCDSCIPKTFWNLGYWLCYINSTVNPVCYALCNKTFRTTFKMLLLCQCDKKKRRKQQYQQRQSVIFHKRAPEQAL

Take `COc1cc(NC(=O)CCCc2ccc(NC(=O)O[C@@H]3C[C@@H]4[C@H]5O[C@H]5[C@H](C3)[N+]4(C)C)c(-c3ccccc3)c2)c(Cl)cc1CNC[C@H](O)c1ccc(O)c2[nH]c(=O)ccc12` [Example 55, (1R,2R,4S,5S,7S)-7-({[4-(3-{[2-chloro-4-({[(2R)-2-hydroxy-2-(8-hydroxy-2-oxo-1,2-dihydroquinolin-5-yl)ethyl]amino}methyl)-5-methoxyphenyl]carbamoyl}propyl)-2-phenylphenyl]carbamoyl}oxy)-9,9-dimethyl-3-oxa-9-azatricyclo[3.3.1.0^2,4]nonan-9-ium trifluoroacetate]: the IC50 in experiment [1] worked out at 51.8 nM. Moreover, a half-maximal response in experiment [2] (EC50) required 0.2 nM.

Consider `C[N+]1(C)CCC(OC(=O)Nc2ccc(CCCC(=O)Nc3ccc(CNC[C@H](O)c4ccc(O)c5[nH]c(=O)ccc45)cc3)cc2-c2ccccc2)CC1` [Example 54, 4-({[4-(3-{[4-({[(2R)-2-hydroxy-2-(8-hydroxy-2-oxo-1,2-dihydroquinolin-5-yl)ethyl]amino}methyl)phenyl]carbamoyl}propyl)-2-phenylphenyl]carbamoyl}oxy)-1,1-dimethylpiperidin-1-ium trifluoroacetate], for which, in experiment [1], the IC50 is 20.9 nM. In experiment [2], this compound showed an EC50 of 0.9 nM.

Consider `Cc1cc(NC(=O)CCc2ccc(-c3ccccc3)c(NC(=O)OC3CC[N+](C)(C)CC3)c2)ccc1CNC[C@H](O)c1ccc(O)c2[nH]c(=O)ccc12` [Example 8, 4-({[5-(2-{[4-({[(2R)-2-hydroxy-2-(8-hydroxy-2-oxo-1,2-dihydroquinolin-5-yl)ethyl]amino}methyl)-3-methylphenyl]carbamoyl}ethyl)-2-phenylphenyl]carbamoyl}oxy)-1,1-dimethylpiperidin-1-ium trifluoroacetate], for which, in experiment [1], the IC50 worked out at 13.5 nM. In experiment [2], this compound gave an EC50 of 5.1 nM.

As for `C[N+]1(C)CCC(OC(=O)Nc2cc(OCCCCCCCCNC[C@H](O)c3ccc(O)c4[nH]c(=O)ccc34)ccc2-c2ccccc2)CC1` [Example 58, 4-[({5-[(8-{[(2R)-2-hydroxy-2-(8-hydroxy-2-oxo-1,2-dihydroquinolin-5-yl)ethyl]amino}octyl)oxy]-2-phenylphenyl}carbamoyl)oxy]-1,1-dimethylpiperidin-1-ium trifluoroacetate], in experiment [1], the IC50 was 46.4 nM. The same compound returned an EC50 in experiment [2] of 0.6 nM.

Consider `COc1cc(NC(=O)CCc2ccc(-c3ccccc3)c(NC(=O)O[C@@H]3C[C@@H]4[C@H]5O[C@H]5[C@H](C3)[N+]4(C)C)c2)c(Cl)cc1CNC[C@H](O)c1ccc(O)c2[nH]c(=O)ccc12` [Example 46, (1R,2R,4S,5S,7S)-7-({[5-(2-{[2-chloro-4-({[(2R)-2-hydroxy-2-(8-hydroxy-2-oxo-1,2-dihydroquinolin-5-yl)ethyl]amino}methyl)-5-methoxyphenyl]carbamoyl}ethyl)-2-phenylphenyl]carbamoyl}oxy)-9,9-dimethyl-3-oxa-9-azatricyclo[3.3.1.0^2,4]nonan-9-ium trifluoroacetate], for which, in experiment [1], the IC50 was 16.5 nM. Further, the EC50 in experiment [2] came out at 1.4 nM.

Regarding `CCOc1cc(NC(=O)CCCc2ccc(-c3ccccc3)c(NC(=O)OC3CC[N+](C)(C)CC3)c2)c(Cl)cc1CNC[C@H](O)c1ccc(O)c2[nH]c(=O)ccc12` [Example 26, 4-({[5-(3-{[2-chloro-5-ethoxy-4-({[(2R)-2-hydroxy-2-(8-hydroxy-2-oxo-1,2-dihydroquinolin-5-yl)ethyl]amino}methyl)phenyl]carbamoyl}propyl)-2-phenylphenyl]carbamoyl}oxy)-1,1-dimethylpiperidin-1-ium trifluoroacetate], the IC50 in experiment [1] came to 23.2 nM. Further, in experiment [2], the concentration for a half-maximal effect (EC50) amounted to 0.9 nM.

As for `C[N+]1(C)CCC(OC(=O)Nc2cc(CCC(=O)Nc3ccc(CNC[C@H](O)c4ccc(O)c5[nH]c(=O)ccc45)c(F)c3)ccc2-c2ccccc2)CC1` [Example 7, 4-({[5-(2-{[3-fluoro-4-({[(2R)-2-hydroxy-2-(8-hydroxy-2-oxo-1,2-dihydroquinolin-5-yl)ethyl]amino}methyl)phenyl]carbamoyl}ethyl)-2-phenylphenyl]carbamoyl}oxy)-1,1-dimethylpiperidin-1-ium trifluoro acetate], the IC50 in experiment [1] was 14.5 nM. For the same compound, in experiment [2], a half-maximal effect (EC50) was put at 5.1 nM.

Turning to `C[N+]1(C)[C@@H]2C[C@@H](OC(=O)Nc3ccc(CCCC(=O)Nc4ccc(CNC[C@H](O)c5ccc(O)c6[nH]c(=O)ccc56)cc4Cl)cc3-c3ccccc3)C[C@H]1[C@@H]1O[C@@H]12` [Example 71, (1R,2R,4S,5S,7S)-7-({[4-(3-{[2-chloro-4-({[(2R)-2-hydroxy-2-(8-hydroxy-2-oxo-1,2-dihydroquinolin-5-yl)ethyl]amino}methyl)phenyl]carbamoyl}propyl)-2-phenylphenyl]carbamoyl}oxy)-9,9-dimethyl-3-oxa-9-azatricyclo[3.3.1.0^2,4]nonan-9-ium trifluoroacetate], in experiment [1], the IC50 was 38.9 nM. The same compound had an EC50 in experiment [2] of 0.2 nM.

Consider `C[N+]1(C)CCC(OC(=O)Nc2cc(CCC(=O)Nc3ccc(CNC[C@H](O)c4ccc(O)c5[nH]c(=O)ccc45)cc3Cl)ccc2-c2ccccc2)CC1` [Example 9, 4-({[5-(2-{[2-chloro-({[(2R)-2-hydroxy-2-(8-hydroxy-2-oxo-1,2-dihydroquinolin-5-yl)ethyl]amino}methyl)phenyl]carbamoyl}ethyl)-2-phenylphenyl]carbamoyl}oxy)-1,1-dimethylpiperidin-1-ium trifluoroacetate], for which the IC50 in experiment [1] was 10.1 nM. The compound further showed a 50% effective concentration (EC50) in experiment [2] of 1.9 nM.

In the case of `COc1cc(NC(=O)CCc2ccc(-c3ccccc3)c(NC(=O)O[C@@H]3C[C@@H]4[C@H]5O[C@H]5[C@H](C3)[N+]4(C)C)c2)ccc1CNC[C@H](O)c1ccc(O)c2[nH]c(=O)ccc12` [Example 42, (1R,2R,4S,5S,7S)-7-({[5-(2-{[4-({[(2R)-2-hydroxy-2-(8-hydroxy-2-oxo-1,2-dihydroquinolin-5-yl)ethyl]amino}methyl)-3-methoxyphenyl]carbamoyl}ethyl)-2-phenylphenyl]carbamoyl}oxy)-9,9-dimethyl-3-oxa-9-azatricyclo[3.3.1.0^2,4]nonan-9-ium trifluoroacetate], the IC50 in experiment [1] stood at 12.3 nM. Further, in experiment [2], it took 0.8 nM to reach a half-maximal effect (EC50).

Consider `C[N+]1(C)CCC(OC(=O)Nc2cc(CCC(=O)Nc3cc(F)c(CNC[C@H](O)c4ccc(O)c5[nH]c(=O)ccc45)cc3F)ccc2-c2ccccc2)CC1` [Example 5, 4-({[5-(2-{[2,5-difluoro-4-({[(2R)-2-hydroxy-2-(8-hydroxy-2-oxo-1,2-dihydroquinolin-5-yl)ethyl]amino}methyl)phenyl]carbamoyl}ethyl)-2-phenylphenyl]carbamoyl}oxy)-1,1-dimethylpiperidin-1-ium trifluoroacetate], for which the IC50 in experiment [1] was 19.2 nM. In experiment [2], this compound came in with an EC50 of 8.2 nM.

With `CCOc1cc(NC(=O)CCCc2ccc(-c3ccccc3)c(NC(=O)OC3CC[N+](C)(C)CC3)c2)ccc1CNC[C@H](O)c1ccc(O)c2[nH]c(=O)ccc12` [Example 27, 4-({[5-(3-{[5-ethoxy-4-({[(2R)-2-hydroxy-2-(8-hydroxy-2-oxo-1,2-dihydroquinolin-5-yl)ethyl]amino}methyl)phenyl]carbamoyl}propyl)-2-phenylphenyl]carbamoyl}oxy)-1,1-dimethylpiperidin-1-ium trifluoroacetate], in experiment [1], the IC50 worked out at 16.1 nM. In experiment [2], this compound displayed an EC50 of 1.5 nM.

(Values after patent publication US9072734B2, “Quaternary ammonium salt compounds” (Teijin Pharma Limited, priority 2009, dated 2015).)
